System: GA-primed murine splenocytes
Assay: Tolerance method for assessing process variability

## glatiramer acetate [GA]
Probe ILMN_1228937
  AVG expression CYHR1: 8.14
Probe ILMN_1229193
  AVG expression MSN: 9.736
Probe ILMN_1229197
  AVG expression OTTMUSG00000016644: 7.618
Probe ILMN_1229746
  AVG expression ECM1: 6.806
Probe ILMN_1229804
  AVG expression LTA: 8.009
Probe ILMN_1229827
  AVG expression ST7: 7.737
Probe ILMN_1229840
  AVG expression FCRLA: 9.907
Probe ILMN_1230045
  AVG expression 4933437K13RIK: 9.824
Probe ILMN_1230137
  AVG expression TPI1: 12.52
Probe ILMN_1230143
  AVG expression BATF2: 6.446
Probe ILMN_1230546
  AVG expression CLIC4: 11.15
Probe ILMN_1230605
  AVG expression GM336: 7.6587
Probe ILMN_1231204
  AVG expression LOC270152: 8.329
Probe ILMN_1231447
  AVG expression TPI1: 7.938
Probe ILMN_1231814
  AVG expression CCL5: 8.662
Probe ILMN_1232235
  AVG expression THADA: 8.652
Probe ILMN_1232621
  AVG expression ANK: 7.123
Probe ILMN_1232668
  AVG expression MAD: 7.987
Probe ILMN_1233293
  AVG expression GBP1: 11.66
Probe ILMN_1233402
  AVG expression LOC100045981: 9.335
Probe ILMN_1233474
  AVG expression IL2RA: 8.134
Probe ILMN_1233501
  AVG expression C530027B15R1K: 8.684
Probe ILMN_1233589
  AVG expression CD27: 8.296
Probe ILMN_1233987
  AVG expression 1110014O20RIK: 9.906
Probe ILMN_1233999
  AVG expression PPP3CC: 8.724
Probe ILMN_1234020
  AVG expression SCL0002007.1_97: 8.904
Probe ILMN_1234054
  AVG expression TMED8: 8.518
Probe ILMN_1234539
  AVG expression IRGM1: 11.44
Probe ILMN_1234698
  AVG expression TSPAN2: 7.426
Probe ILMN_1234706
  AVG expression IGHA_J00475$V00785_IG_HEAVY—CONSTANT_ALPHA_135: 7.221
Probe ILMN_1234746
  AVG expression AI790298: 6.873
Probe ILMN_1234973
  AVG expression 4630004K05RIK: 6.972
Probe ILMN_1235499
  AVG expression PROS1: 8.935
Probe ILMN_1235926
  AVG expression A630072M18RIK: 8.781
Probe ILMN_1236111
  AVG expression FCRLA: 11.88
Probe ILMN_1236245
  AVG expression RAB11FIP4: 6.42
Probe ILMN_1236354
  AVG expression E130302P19RIK: 7.244
Probe ILMN_1236507
  AVG expression 5830496L11RIK: 9.309
Probe ILMN_1236588
  AVG expression CAR1: 9.793
Probe ILMN_1237074
  AVG expression SLC25A19: 11.68
Probe ILMN_1237338
  AVG expression DDX25: 6.532
Probe ILMN_1237567
  AVG expression IL7R: 6.244
Probe ILMN_1237695
  AVG expression PFKP: 10.66
Probe ILMN_1237871
  AVG expression AMPD1: 6.446
Probe ILMN_1238547
  AVG expression AREG: 6.514
Probe ILMN_1238725
  AVG expression C130086J11RIK: 7.188
Probe ILMN_1239055
  AVG expression KDH: 7.064
Probe ILMN_1239346
  AVG expression KLRE1: 6.805
Probe ILMN_1239397
  AVG expression LOC100047934: 10.17
Probe ILMN_1239411
  AVG expression 6430510M02RIK: 8.536
Probe ILMN_1239472
  AVG expression CEACAM2: 6.786
Probe ILMN_1239632
  AVG expression NG23: 8.463
Probe ILMN_1239729
  AVG expression KIF1B: 7.517
Probe ILMN_1239797
  AVG expression 6030400N17RIK: 6.341
Probe ILMN_1239878
  AVG expression PRSS34: 6.278
Probe ILMN_1241171
  AVG expression ANXA3: 8.239
Probe ILMN_1241610
  AVG expression ADRB2: 8.974
Probe ILMN_1242308
  AVG expression TCF7: 8.261
Probe ILMN_1242622
  AVG expression CREM: 8.248
Probe ILMN_1242769
  AVG expression AKAP8L: 9.971
Probe ILMN_1242794
  AVG expression D630014A15RIK: 8.379
Probe ILMN_1243150
  AVG expression A130010J15RIK: 8.875
Probe ILMN_1243249
  AVG expression 2810410A03RIK: 10.13
Probe ILMN_1243621
  AVG expression A130026C10RIK: 9.03
Probe ILMN_1244343
  AVG expression B230369L08RIK: 9.9
Probe ILMN_1244516
  AVG expression RASGRP2: 6.8
Probe ILMN_1244853
  AVG expression LOC100044948: 11.36
Probe ILMN_1244866
  AVG expression GBP5: 9.012
Probe ILMN_1244874
  AVG expression SYNGR2: 10.87
Probe ILMN_1244891
  AVG expression CST7: 7.709
Probe ILMN_1245300
  AVG expression F730045P10RIK: 7.742
Probe ILMN_1245731
  AVG expression HHEX: 9.543
Probe ILMN_1245754
  AVG expression CD84: 6.93
Probe ILMN_1246543
  AVG expression SIAT7C: 8.379
Probe ILMN_1246895
  AVG expression C78339: 9.914
Probe ILMN_1247198
  AVG expression BC004728: 10.36
Probe ILMN_1247199
  AVG expression LOC100046770: 8.329
Probe ILMN_1247309
  AVG expression IL3: 9.384
Probe ILMN_1247893
  AVG expression CGEF2-PENDING: 8.11
Probe ILMN_1248028
  AVG expression EMP3: 10.05
Probe ILMN_1248413
  AVG expression FASL: 6.78
Probe ILMN_1248651
  AVG expression C330023M02RIK: 8.865
Probe ILMN_1248714
  AVG expression CD55: 8.2139
Probe ILMN_1248843
  AVG expression GATA3: 8.224
Probe ILMN_1249014
  AVG expression TBX6: 6.934
Probe ILMN_1249021
  AVG expression BCL2: 8.748
Probe ILMN_1249030
  AVG expression MPO: 8.41
Probe ILMN_1249366
  AVG expression LOC100046608: 9.365
Probe ILMN_1249740
  AVG expression TSSC6: 6.912
Probe ILMN_1249824
  AVG expression IGF1R: 6.78
Probe ILMN_1249975
  AVG expression IGHG: 8.895
Probe ILMN_1250410
  AVG expression EIF2AK2: 10.06
Probe ILMN_1251984
  AVG expression C730026J16: 9.459
Probe ILMN_1252076
  AVG expression LYZ2: 8.645
Probe ILMN_1252295
  AVG expression LOC100038894: 6.989
Probe ILMN_1252496
  AVG expression WDR9: 7.625
Probe ILMN_1253008
  AVG expression ACAT2: 9.341
Probe ILMN_1253182
  AVG expression HS3ST1: 8.805
Probe ILMN_1253354
  AVG expression DAPP1: 8.474
Probe ILMN_1254157
  AVG expression WARS: 10.36
Probe ILMN_1254218
  AVG expression NISCH: 10.29
Probe ILMN_1254314
  AVG expression 4931429I11RIK: 6.757
Probe ILMN_1254405
  AVG expression LMNA: 8.835
Probe ILMN_1254577
  AVG expression AI607873: 7.533
Probe ILMN_1254634
  AVG expression ACPL2: 7.573
Probe ILMN_1254669
  AVG expression SYPL: 10.85
Probe ILMN_1254685
  AVG expression EG240327: 7.154
Probe ILMN_1255510
  AVG expression LMNA: 9.57
Probe ILMN_1255743
  AVG expression IL6RA: 7.478
Probe ILMN_1255860
  AVG expression KLRD1: 8.506
Probe ILMN_1256219
  AVG expression LOC100047261: 11.14
Probe ILMN_1256356
  AVG expression PML: 10.68
Probe ILMN_1256430
  AVG expression MCOLN3: 6.748
Probe ILMN_1256644
  AVG expression SLC6A12: 6.942
Probe ILMN_1257107
  AVG expression LOC100043821: 10.78
Probe ILMN_1257444
  AVG expression SLC37A1: 7.908
Probe ILMN_1257771
  AVG expression LOC638301: 9.6
Probe ILMN_1257803
  AVG expression A130095K04RIK: 6.146
Probe ILMN_1258197
  AVG expression D230004N01RIK: 8.362
Probe ILMN_1258357
  AVG expression DOK3: 11.45
Probe ILMN_1258364
  AVG expression 5430434G16RIK: 8.61
Probe ILMN_1258587
  AVG expression LOC100044376: 9.335
Probe ILMN_1258864
  AVG expression BC106179: 7.749
Probe ILMN_1258965
  AVG expression TMEM66: 10.41
Probe ILMN_1259075
  AVG expression NME7: 8.301
Probe ILMN_1259174
  AVG expression SCIN: 9.64
Probe ILMN_1260046
  AVG expression SFT2D2: 10.2783
Probe ILMN_2054914
  AVG expression USP18: 8.225
Probe ILMN_2163572
  AVG expression ADCY7: 8.002
Probe ILMN_2419490
  AVG expression TNFRSF18: 11.07
Probe ILMN_2419494
  AVG expression TNFR5F18: 10.8
Probe ILMN_2421220
  AVG expression BRWD1: 7.59
Probe ILMN_2426853
  AVG expression UBD: 8.138
Probe ILMN_2431237
  AVG expression XBP1: 12.27
Probe ILMN_2433990
  AVG expression LOC100048346: 9.203
Probe ILMN_2443164
  AVG expression SCL0002069.1_48: 8.113
Probe ILMN_2444984
  AVG expression MACF1: 7.707
Probe ILMN_2445789
  AVG expression TNFRSF9: 8.963
Probe ILMN_2446559
  AVG expression TNFRSF4: 10.65
Probe ILMN_2447712
  AVG expression IBRDC3: 7.79
Probe ILMN_2449150
  AVG expression MAP4K2: 9.206
Probe ILMN_2450767
  AVG expression DUSP4: 8.696
Probe ILMN_2454823
  AVG expression 6720418B01RIK: 7.844
Probe ILMN_2457437
  AVG expression A830080H07RIK: 9.842
Probe ILMN_2457571
  AVG expression MAML2: 8.504
Probe ILMN_2458765
  AVG expression AHNAK: 8.464
Probe ILMN_2459899
  AVG expression ADAMTSL4: 8.039
Probe ILMN_2460094
  AVG expression WNT10A: 7.099
Probe ILMN_2467190
  AVG expression BAMBI-PS1: 7.445
Probe ILMN_2473692
  AVG expression 1110059G02RIK: 6.85
Probe ILMN_2474052
  AVG expression 5830411I20: 10.05
Probe ILMN_2476452
  AVG expression CPM: 6.679
Probe ILMN_2481117
  AVG expression 1700052O22R1K: 9.816
Probe ILMN_2483811
  AVG expression 2210408F11RIK: 10.42
Probe ILMN_2488997
  AVG expression 2010005O13RIK: 9.797
Probe ILMN_2490076
  AVG expression PKIB: 7.096
Probe ILMN_2491741
  AVG expression TRIO: 6.611
Probe ILMN_2492264
  AVG expression WISP1: 6.711
Probe ILMN_2492284
  AVG expression AA536717: 6.484
Probe ILMN_2493030
  AVG expression 2310043N10RIK: 9.383
Probe ILMN_2493826
  AVG expression UGT1A10: 6.49
Probe ILMN_2500370
  AVG expression 9430080K19RIK: 10.17
Probe ILMN_2504447
  AVG expression EG330070: 6.499
Probe ILMN_2506039
  AVG expression A130090K04RIK: 8.137
Probe ILMN_2507761
  AVG expression 7530404M11RIK: 7.426
Probe ILMN_2510694
  AVG expression NME7: 7.434
Probe ILMN_2513451
  AVG expression 1110046J11RIK: 10.16
Probe ILMN_2517611
  AVG expression 7530408C15RIK: 7.035
Probe ILMN_2518483
  AVG expression PLA2G12A: 6.955
Probe ILMN_2520264
  AVG expression 2010016118RIK: 7.54
Probe ILMN_2522460
  AVG expression 3010031K01RIK: 9.234
Probe ILMN_2522750
  AVG expression TRIO: 8.588
Probe ILMN_2524763
  AVG expression 4930597A21RIK: 7.674
Probe ILMN_2524865
  AVG expression CHI3L4: 7.454
Probe ILMN_2531737
  AVG expression LOC240672: 8.095
